Experimental data: EP4624466A1, “DEGRADER FOR DECOMPOSING CMET PROTEIN, AND PHARMACEUTICAL COMPOSITION COMPRISING SAME” (Innocure Therapeutics, Inc., priority 2022, dated 2024)
Read-outs that look alike come from different tables or passages of the source.

What was measured:
c-MET = c-MET (Homo sapiens, UniProt P08581); assay: c-MET protein degradation (Simple Western), MKN-45; format: cell-based; design: assess the resolution of the compound of the present invention for c-MET expressed in cells; endogenous in cells; host or cells: MKN45 (human gastric cancer); settings: c-MET overexpressing gastric cancer cell line MKN-45, treated 24 hours
Protocol: In order to assess the resolution of the compound of the present invention for c-MET expressed in cells, cells were dispensed in a 12-well plate at a concentration of 2 × 10^5 cells/well, and then gastric cancer cell lines were treated with samples for 24 hours and lung cancer cell lines were treated for 48 hours. Cell lysates were collected using a scraper on ice, centrifuged at 4°C15,000 rpm for 30 min to obtain a protein-containing supernatant. Protein expression was then measured using the Simple Western Automated Western Blot System Abby instrument using 3 µg of protein for each sample. SDS and heat-induced denaturation proteins were separated by molecular weight, attached to capillary, reacted with anti-c-MET or anti-GAPDH antibodies, which are primary antibodies, and then reacted with HRP-conjugated secondary antibodies, and analyzed the protein expression signal with compass software. Protein expression was normalized based on the expression value of GAPDH, and protein development in each sample was measured as a percentage (%) based on 100% of samples treated with 0.1% DMSO carriers, and DC50 (concentration of a compound where 50% protein inhibition is achieved) was calculated from the change in protein expression amount due to compound treatment.

MKN-45 = assay: Cell viability / antiproliferative assay (WST-8), MKN-45; settings: read-out: MKN-45 IC50;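 note: MKN-45 is a human gastric cancer line overexpressing c-MET, growth inhibition read as WST-8 formazan absorbance at 450 nm after 2 h dye incubation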
[1] = MKN-45 cells, 72 hours, WST-8, Table 1

Sequence of c-MET (P08581 25-1390): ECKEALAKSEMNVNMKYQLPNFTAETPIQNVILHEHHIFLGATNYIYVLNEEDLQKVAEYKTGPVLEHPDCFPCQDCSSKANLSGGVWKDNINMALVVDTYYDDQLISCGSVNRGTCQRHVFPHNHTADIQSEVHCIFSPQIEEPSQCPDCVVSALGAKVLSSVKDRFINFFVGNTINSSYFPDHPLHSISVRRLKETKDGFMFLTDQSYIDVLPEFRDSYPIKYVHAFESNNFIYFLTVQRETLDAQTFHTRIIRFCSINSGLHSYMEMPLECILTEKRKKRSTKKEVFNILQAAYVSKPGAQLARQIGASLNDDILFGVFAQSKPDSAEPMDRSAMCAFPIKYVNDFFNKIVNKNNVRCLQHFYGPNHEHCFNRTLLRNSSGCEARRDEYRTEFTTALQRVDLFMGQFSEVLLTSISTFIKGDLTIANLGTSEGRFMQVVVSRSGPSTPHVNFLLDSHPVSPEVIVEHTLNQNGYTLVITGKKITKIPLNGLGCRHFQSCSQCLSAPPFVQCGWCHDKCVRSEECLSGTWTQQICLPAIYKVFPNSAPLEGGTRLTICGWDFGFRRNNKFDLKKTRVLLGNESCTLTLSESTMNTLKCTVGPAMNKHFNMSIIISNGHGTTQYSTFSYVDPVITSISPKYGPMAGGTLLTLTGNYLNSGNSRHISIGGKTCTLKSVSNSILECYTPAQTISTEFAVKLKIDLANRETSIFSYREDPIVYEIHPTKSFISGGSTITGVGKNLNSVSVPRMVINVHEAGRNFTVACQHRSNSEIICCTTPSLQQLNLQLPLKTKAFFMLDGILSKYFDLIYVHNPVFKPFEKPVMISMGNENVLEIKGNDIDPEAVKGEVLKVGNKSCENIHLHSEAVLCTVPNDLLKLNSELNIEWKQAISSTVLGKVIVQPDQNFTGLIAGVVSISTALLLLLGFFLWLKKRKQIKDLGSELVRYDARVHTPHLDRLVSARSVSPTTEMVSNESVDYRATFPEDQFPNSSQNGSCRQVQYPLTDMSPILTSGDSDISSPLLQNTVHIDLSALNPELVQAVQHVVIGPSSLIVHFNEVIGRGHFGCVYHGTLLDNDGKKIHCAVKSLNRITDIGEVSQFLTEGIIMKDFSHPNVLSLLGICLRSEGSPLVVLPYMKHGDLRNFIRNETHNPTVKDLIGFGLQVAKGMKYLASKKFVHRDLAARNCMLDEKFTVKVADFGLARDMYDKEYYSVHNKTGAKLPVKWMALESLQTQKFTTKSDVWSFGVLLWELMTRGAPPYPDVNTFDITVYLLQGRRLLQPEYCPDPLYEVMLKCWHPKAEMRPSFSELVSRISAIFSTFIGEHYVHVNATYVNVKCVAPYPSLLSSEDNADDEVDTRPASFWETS

Row | Molecule | DC50 (c-MET; Table 2) [nM] | IC50 (MKN-45; Homo sapiens, MKN-45, 72 h) [nM] | DC50 (c-MET; Table 1) [nM] | IC50 (MKN-45; [1]) [nM] | IC50 (MKN-45; MKN-45 cells, 72 hours, WST-8, Table 2) [nM]
1 | Cc1nn(C2CCC(=O)NC2=O)c(=O)c2ccc(N3CCN(CCCC(=O)N4CCC(COc5cnc(-c6cccc(Cn7nc(-c8cccc(C#N)c8)ccc7=O)c6)nc5)CC4)CC3)cc12 (stereo not drawn) [ICT-0001175, 3-(1-(3-(5-((1-(4-(4-(2-(2,6-dioxopiperidine-3-yl)-4-methyl-1-oxo-1,2-dihydropthalazine-6-yl)piperazine-1-yl)butanoyl)piperidine-4-il)methoxy)pyrimidine-2-yl)benzyl)6-oxo-1,6-dihydropyridazine-3-yl)benzonitrile] | < 100 | < 100 | – | – | –
2 | Cn1cc(-c2cnc3c(nnn3C[C@@H]3CN(c4ncc(-c5ccc(CN6CCN(C(=O)CCCCNc7cccc8cnn(C9CCC(=O)NC9=O)c(=O)c78)CC6)cc5)cn4)CCO3)n2)cn1 (stereo partly drawn) [ICT-0000959, 3-{8-[(5-{4-[(4-{2-[(2S)-2-{[5-(1-methyl-1H-pyrazole-4-yl)-1H-[1,2,3]triazolo[4,5-b]pyrazine-1-yl]methyl}morpholine-4-il]pyrimidine-5-yl}phenyl)methyl]piperazine-1-yl}-5-oxopentyl)amino]-1-oxo-1,2-dihydropthalazine-2-yl}piperidine-2,6-dione] | – | – | < 100 | < 100 | –
3 | Cc1nn(C2CCC(=O)NC2=O)c(=O)c2cc(N3CCO[C@H](CN4CCN(CC(=O)N5CCC(COc6cnc(-c7cccc(Cn8nc(-c9cccc(C#N)c9)ccc8=O)c7)nc6)CC5)CC4)C3)ccc12 (stereo partly drawn) [ICT-0001271, 3-(1-(3-(5-((1-(2-(4-(((2R)-4-(3-(2,6-dioxopiperidin-3-yl)-1-methyl-4-oxo-3,4-dihydrophthalazine-6-yl)morpholine-2-il)methyl)piperazine-1-il)acetyl)piperidine-4-il)methoxy)pyrimidine-2-yl)benzyl)6-oxo-1,6-dihydropyridazine-3-yl)benzonitrile] | < 100 | – | – | – | < 100
4 | Cc1nn(C2CCC(=O)NC2=O)c(=O)c2ccc(N3CCC(CN4CCN(C(=O)CN5CCC(COc6cnc(-c7cccc(Cn8nc(-c9cccc(C#N)c9)ccc8=O)c7)nc6)CC5)CC4)CC3)cc12 (stereo not drawn) [ICT-0001236] | < 100 | < 100 | – | – | –
5 | Cc1nn(C2CCC(=O)NC2=O)c(=O)c2ccc(N3CCO[C@H](CN4CCN(CC(=O)N5CCC(COc6cnc(-c7cccc(Cn8nc(-c9cccc(C#N)c9)ccc8=O)c7)nc6)CC5)CC4)C3)cc12 (stereo partly drawn) [ICT-0001229] | < 100 | < 100 | – | – | –
6 | Cc1nn(C2CCC(=O)NC2=O)c(=O)c2ccc(N3CCN(C[C@@H]4CN(C(=O)CN5CCC(COc6cnc(-c7cccc(Cn8nc(-c9cccc(C#N)c9)ccc8=O)c7)nc6)CC5)CCO4)CC3)cc12 (stereo partly drawn) [ICT-0001258] | < 100 | < 100 | – | – | –
7 | N#Cc1cccc(-c2ccc(=O)n(Cc3cccc(-c4ncc(OCC5CCN(C(=O)CCCCCCNc6ccc7c(=O)n(C8CCC(=O)NC8=O)ncc7c6)CC5)cn4)c3)n2)c1 (stereo not drawn) [ICT-0000985, 3-(1-{[3-(5-{[1-(7-{[2-(2,6-dioxopiperidin-3-yl)-1-oxo-1,2-dihydropthalazine-6-yl]amino}heptanoyl)piperidine-4-il]methoxy}pyrimidine-2-yl)phenyl]methyl}-6-oxo-1,6-dihydropyridazine-3-yl)benzonitrile] | < 100 | < 100 | – | – | –
8 | Cc1nn(C2CCC(=O)NC2=O)c(=O)c2cc(N3CCC(CN4CCN(CC(=O)N5CCC(COc6cnc(-c7cccc(Cn8nc(-c9cccc(C#N)c9)ccc8=O)c7)nc6)CC5)CC4)CC3)ccc12 (stereo not drawn) [ICT-0001239] | < 100 | < 100 | – | – | –
9 | Cc1nn(C2CCC(=O)NC2=O)c(=O)c2ccc(N3CCN(CC(=O)N4CCC(COc5cnc(-c6cccc(Cn7nc(-c8cccc(C#N)c8)ccc7=O)c6)nc5)CC4)CC3)cc12 (stereo not drawn) [ICT-0001173] | < 100 | < 100 | – | – | –
10 | N#Cc1cccc(-c2ccc(=O)n(Cc3cccc(-c4ncc(OCC5CCN(C(=O)CCN6CCN(c7ccc8c(=O)n(C9CCC(=O)NC9=O)ncc8c7)CC6)CC5)cn4)c3)n2)c1 (stereo not drawn) [ICT-0001199, 3-(1-{[3-(5-{[1-(3-{4-[2-(2,6-dioxopiperidin-3-yl)-1-oxo-1,2-dihydropthalazine-6-yl]piperazine-1-yl}propanoyl)piperidine-4-il]methoxy}pyrimidin-2-yl)phenyl]methyl}-6-oxo-1,6-dihydropyridazine-3-yl)benzonitrile] | < 100 | < 100 | – | – | –
11 | Cc1nn(C2CCC(=O)NC2=O)c(=O)c2ccc(NCCCCCC(=O)N3CCC(COc4cnc(-c5cccc(Cn6nc(-c7cccc(C#N)c7)ccc6=O)c5)nc4)CC3)cc12 (stereo not drawn) [ICT-0000990] | 100 to 1000 | 100 to 1000 | – | – | –
12 | Cc1nn(C2CCC(=O)NC2=O)c(=O)c2ccc(N3CCN(C(=O)CN4CCC(COc5cnc(-c6cccc(Cn7nc(-c8cccc(C#N)c8)ccc7=O)c6)nc5)CC4)CC3)cc12 (stereo not drawn) [ICT-0001177, 3-(1-{[3-(5-{[1-(2-{4-[2-(2,6-dioxopiperidin-3-yl)-4-methyl-1-oxo-1,2-dihydropthalazine-6-yl]piperazine-1-yl}-2-oxoethyl)piperidine-4-yl]methoxy}pyrimidine-2-yl)phenyl]methyl}-6-oxo-1,6-dihydropyridazine-3-yl)benzonitrile] | < 100 | < 100 | – | – | –
13 | Cc1nn(C2CCC(=O)NC2=O)c(=O)c2ccc(N3CCN(CCC(=O)N4CCC(COc5cnc(-c6cccc(Cn7nc(-c8cccc(C#N)c8)ccc7=O)c6)nc5)CC4)CC3)cc12 (stereo not drawn) [ICT-0001174] | < 100 | < 100 | – | – | –
14 | Cc1nn(C2CCC(=O)NC2=O)c(=O)c2ccc(N3CCN(C4CCN(C(=O)CN5CCC(COc6cnc(-c7cccc(Cn8nc(-c9cccc(C#N)c9)ccc8=O)c7)nc6)CC5)CC4)CC3)cc12 (stereo not drawn) [ICT-0001237] | < 100 | < 100 | – | – | –
15 | Cc1nn(C2CCC(=O)NC2=O)c(=O)c2c(NCC(=O)N3CCC(COc4cnc(-c5cccc(Cn6nc(-c7cccc(C#N)c7)ccc6=O)c5)nc4)CC3)cccc12 (stereo not drawn) [ICT-0000981] | > 1000 | < 100 | – | – | –
16 | Cn1cc(-c2cnc3c(nnn3C[C@@H]3CN(c4ncc(-c5ccc(CN6CCN(C(=O)CCCCCCNc7cccc8cnn(C9CCC(=O)NC9=O)c(=O)c78)CC6)cc5)cn4)CCO3)n2)cn1 (stereo partly drawn) [ICT-0000960, 3-{8-[(7-{4-[(4-{2-[(2S)-2-{[5-(1-methyl-1H-pyrazole-4-yl)-1H-[1,2,3]triazolo[4,5-b]pyrazine-1-yl]methyl}morpholine-4-yl]pyrimidine-5-yl}phenyl)methyl]piperazine-1-yl}-7-oxoheptyl)amino]-1-oxo-1,2-dihydrophthalazine-2-yl}piperidine-2,6-dione] | – | < 100 | 100 to 1000 | – | –
17 | Cc1nn(C2CCC(=O)NC2=O)c(=O)c2cc(N3CCN(CCCCC(=O)N4CCC(COc5cnc(-c6cccc(Cn7nc(-c8cccc(C#N)c8)ccc7=O)c6)nc5)CC4)CC3)ccc12 (stereo not drawn) [ICT-0001217] | < 100 | < 100 | – | – | –
18 | 3-(6-(4-((1-(4-(1-(2-((S)-2-((5-(1-methyl-1H-pyrazole-4-yl)-1H-[1,2,3]triazolo[4,5-b]pyrazine-1-yl)methyl)morpholino)pyrimidine-5-il)benzyl)piperidine-4-il)methyl)piperazine-1-yl)piperazine-1-yl)1-oxopthalazine-2(1H)-yl)piperidine-2,6-dione [ICT-0000978] | – | – | 100 to 1000 | < 100 | –
19 | Cc1nn(C2CCC(=O)NC2=O)c(=O)c2cc(N3CCN(CC4CCN(C(=O)CN5CCC(COc6cnc(-c7cccc(Cn8nc(-c9cccc(C#N)c9)ccc8=O)c7)nc6)CC5)CC4)CC3)ccc12 (stereo not drawn) [ICT-0001195] | < 100 | < 100 | – | – | –
20 | N#Cc1cccc(-c2ccc(=O)n(Cc3cccc(-c4ncc(OCC5CCN(C(=O)COCCOCCNc6ccc7c(=O)n(C8CCC(=O)NC8=O)ncc7c6)CC5)cn4)c3)n2)c1 (stereo not drawn) [ICT-0000986] | < 100 | < 100 | – | – | –
21 | Cc1nn(C2CCC(=O)NC2=O)c(=O)c2ccc(N3CCC(NC4CCN(CC(=O)N5CCC(COc6cnc(-c7cccc(Cn8nc(-c9cccc(C#N)c9)ccc8=O)c7)nc6)CC5)CC4)CC3)cc12 (stereo not drawn) [ICT-0001219] | < 100 | < 100 | – | – | –
22 | Cc1nn(C2CCC(=O)NC2=O)c(=O)c2cc(N3CCC(N4CCN(CC(=O)N5CCC(COc6cnc(-c7cccc(Cn8nc(-c9cccc(C#N)c9)ccc8=O)c7)nc6)CC5)CC4)CC3)ccc12 (stereo not drawn) [ICT-0001270] | < 100 | < 100 | – | – | –
23 | Cn1cc(-c2cnc3c(nnn3C[C@@H]3CN(c4ncc(-c5ccc(CN6CCN(C(=O)CN7CCN(c8ccc9c(=O)n(C%10CCC(=O)NC%10=O)ncc9c8)CC7)CC6)cc5)cn4)CCO3)n2)cn1 (stereo partly drawn) [ICT-0001109] | – | < 100 | < 100 | – | –
24 | Cc1nn(C2CCC(=O)NC2=O)c(=O)c2ccc(NCCOCCOCC(=O)N3CCC(COc4cnc(-c5cccc(Cn6nc(-c7cccc(C#N)c7)ccc6=O)c5)nc4)CC3)cc12 (stereo not drawn) [ICT-0001087] | < 100 | < 100 | – | – | –
